Results: US20080214563A1, “Benzimidazole Thiophene Compounds As Plk Modulators” (priority 2005, published 2008)
pIC50: −log10 of the molar value.

Legend:
MX-1 = test: Methylene Blue Cell Growth Inhibition Assay, MX-1; assay type: cell-based; conditions: Homo sapiens, MX1, 72 h, read-out: MEB MX-1 IC50
PLK1 kinase domain = target: T1, PLK1 kinase domain (Homo sapiens, UniProt P53350); test: Assay for Inhibition of PLK1 (33P SPA kinase assay); assay type: biochemical; conditions: 2 nM PLK1 kinase domain, 1 μM ATP; read-out: PLK1 pIC50 (converted)
T1 construct: made in house; host or cells: baculovirus infected T. ni cells
Protocol: All procedures were performed at 4° C. Cells were lysed in 50 mM HEPES, 200 mM NaCl, 50 mM imidazole, 5% glycerol; pH 7.5. The homogenate was centrifuged at 14K rpm in a SLA-1500 rotor for 1 h and the supernatant filtered through a 1.2 micron filter. The supernatant was loaded onto a Nickel chelating Sepharose (Amersham Pharmacia) column and washed with lysis buffer. Protein was eluted using 20%, 30% and 100% buffer B steps where buffer B is 50 mM HEPES, 200 mM NaCl, 300 mM imidazole, 5% glycerol; pH 7.5. Fractions containing PLK were determined by SDS-PAGE. Fractions containing PLK were diluted five-fold with 50 mM HEPES, 1 mM DTT, 5% glycerol; pH 7.5, then loaded on an SP Sepharose (Amersham Pharmacia) column. After washing the column with 50 mM HEPES, 1 mM DTT, 5% glycerol; pH 7.5, PLK was step eluted with 50 mM HEPES, 1 mM DTT, 500 mM NaCl; 5% glycerol; pH 7.5. PLK was concentrated using a 10 kDa molecular weight cutoff membrane and then loaded onto a Superdex 200 gel filtration (Amersham Pharmacia) column equilibrated in 25 mM HEPES, 1 mM DTT, 500 mM NaCl, 5% glycerol; pH 7.5. Fractions containing PLK were determined by SDS-PAGE. PLK was pooled, aliquoted and stored at −80° C. Samples were quality controlled using mass spectrometry, N-terminal sequencing and amino acid analysis.
B. Enzyme activity +/− inhibitors was determined as follows:
All measurements were obtained under conditions where signal production increased linearly with time and enzyme. Test compounds were added to white 384-well assay plates (0.1 μL for 10 μL and some 20 μl assays, 1 μL for some 20 μL assays) at variable known concentrations in 100% DMSO. DMSO (1-5% final, as appropriate) and EDTA (65 mM in reaction) were used as controls.
Reaction Mix (10 or 20 μL) was quickly added to each well immediately following addition of enzyme via automated liquid handlers and incubated 1-1.5 h at 22° C. The 20 μL enzymatic reactions were stopped with 50 μL of stop mix (50 mM EDTA, 4.0 mg/mL Streptavidin SPA beads in Standard Dulbecco's PBS (without Mg^2+ and Ca^2+), 50 μM ATP) per well. The 10 μL reactions were stopped with 10 μL of stop mix (50 mM EDTA, 3.0 mg/mL Streptavidin-coupled SPA Imaging Beads (“LeadSeeker”) in Standard Dulbecco's PBS (without Mg^2+ and Ca^2+), 50 μM ATP) per well. Plates were sealed with clear plastic seals, spun at 500×g for 1 min or settled overnight, and counted in Packard TopCount for 30 seconds/well (regular SPA) or imaged using a Viewlux imager (LeadSeeker SPA). Signal above background (EDTA controls) was converted to percent inhibition relative to that obtained in control (DMSO-only) wells.

A549 = test: Methylene Blue Cell Growth Inhibition Assay, A549; assay type: cell-based; conditions: Homo sapiens, 72 h, read-out: MEB A549 IC50
Protocol: (§1) Normal human foreskin fibroblasts (HFF), human colon (HCT116, RKO), lung (H460, A549) and breast (MCF7) tumor cell lines were cultured in high glucose DMEM (Life Technologies) containing 10% fetal bovine serum (FBS) at 37° C. in a humidified 5% CO2, 95% air incubator. Cells were harvested using trypsin/EDTA, counted using a haemocytometer, and plated in 100 μL of culture media per well, at the following densities, in a 96-well tissue culture plate (Falcon 3075): HFF 5,000 cells/well, HCT116 3,000 cells/well, RKO 2,500 cells/well, H460 2,500 cells/well, A549 5,000 cells/well, MCF7 4,000 cells/well. The next day, compounds were diluted in low glucose DMEM containing 100 μg/mL gentamicin, at twice the final required concentration, from 10 mM stock solutions in DMSO. 100 μL/well of these dilutions were added to the 100 μL of media currently in the assay plates. Medium containing 0.6% DMSO was added to control wells. The final concentration of DMSO in all wells was 0.3%. Cells were incubated at 37° C., 5% CO2 for 72 h. Medium was removed by aspiration. Cell biomass was estimated by staining cells with 80 μL per well methylene blue (Sigma M9140, 0.5% in 50:50 ethanol:water), and incubation at room temperature for 30-60 min. Stain was removed by aspiration and the plates rinsed by immersion in water, then air-dried. To release stain from the cells, 100 μL of solubilization solution was added (1% N-lauroyl sarcosine, Sodium salt, Sigma L5125, in PBS), and plates were shaken gently for about 30 min. Optical density at 620 nm was measured on a microplate reader. Percent inhibition of cell growth was calculated relative to vehicle treated control wells. Concentration of compound that inhibits 50% of cell growth (IC50) was interpolated using nonlinear regression (Levenberg-Marquardt) and the equation, y=Vmax*(1−(x/(K+x)))+Y2, where “K” was equal to the IC50.

H460 = test: Methylene Blue Cell Growth Inhibition Assay, H460; assay type: cell-based; conditions: Homo sapiens, NCI-H460, 72 h, read-out: MEB H460 IC50
Protocol: as §1

T1 sequence (P53350 21-346): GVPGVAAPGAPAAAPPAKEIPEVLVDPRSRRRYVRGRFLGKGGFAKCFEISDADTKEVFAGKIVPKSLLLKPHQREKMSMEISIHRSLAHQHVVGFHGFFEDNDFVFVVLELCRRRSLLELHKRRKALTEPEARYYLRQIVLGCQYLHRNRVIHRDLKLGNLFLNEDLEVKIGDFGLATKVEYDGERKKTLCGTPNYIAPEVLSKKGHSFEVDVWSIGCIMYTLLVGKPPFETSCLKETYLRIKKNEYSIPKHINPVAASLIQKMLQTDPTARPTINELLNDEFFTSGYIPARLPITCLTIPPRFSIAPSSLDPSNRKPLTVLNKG

Row | IC50 (PLK1 kinase domain) [µM] | SMILES | pIC50 (MX-1) | pIC50 (A549) | pIC50 (H460)
1 | < 0.01 | C[C@@H](Oc1cc(-n2cnc3cc(-c4ccc(N5CCNCC5)nc4)ccc32)sc1C(N)=O)c1ccccc1C(F)(F)F [Example 1, 5-{5-[6-(1-piperazinyl)-3-pyridinyl]-1H-benzimidazol-1-yl}-3-({(1R)-1-[2-(trifluoromethyl)phenyl]ethyl}oxy)-2-thiophenecarboxamide] | 6.00 to 7.00 | 6.00 to 7.00 | 6.00 to 7.00
2 | < 0.01 | C[C@@H](Oc1cc(-n2cnc3cc(-c4ccc(N5CCNCC5)nc4)ccc32)sc1C(N)=O)c1ccccc1Cl [Example 7, 3-{[(1R)-1-(2-Chlorophenyl)ethyl]oxy}-5-{5-[6-(1-piperazinyl)-3-pyridinyl]-1H-benzimidazol-1-yl}-2-thiophenecarboxamide] | – | – | –
3 | – | C[C@@H](Oc1cc(-n2cnc3cc(-c4cnn(C)c4)ccc32)sc1C(N)=O)c1ccccc1Cl [Example 9, 3-{[(1R)-1-(2-Chlorophenyl)ethyl]oxy}-5-[5-(1-methyl-1H-pyrazol-4-yl)-1H-benzimidazol-1-yl]-2-thiophenecarboxamide] | > 7.00 | > 7.00 | > 7.00
